According to article PMC7611678 (ACS catalysis, 2021):
Read-outs that look alike come from different tables or passages of the source.

What was measured:
[1] = tested on: HspUPO; details: 2 mM H2O2, McIlvaine buffer pH 4, 25 °C; glycosylated enzyme
[2] = tested on: HspUPO; details: 2 mM H2O2, McIlvaine buffer pH 7, 25 °C; glycosylated enzyme
[3] = tested on: HspUPO; details: 2 mM H2O2, McIlvaine buffer pH 7, 25 °C; glycosylated enzyme; remark: listed apart in the source
[4] = tested on: HspUPO; details: 2 mM H2O2, McIlvaine buffer pH 5, 25 °C; glycosylated enzyme
[5] = tested on: HspUPO; details: 2 mM H2O2, McIlvaine buffer pH 7, 25 °C; glycosylated enzyme; remark: listed apart in the source

**Q.** For `COc1ccc(CO)cc1OC` [2a, 3,4-Dimethoxybenzyl alcohol], which Km [1] is on record?
**A.** 758 ± 100 µM

**Q.** How did the Km [2] turn out when `OCc1ccccc1` [Benzyl alcohol] was run?
**A.** 680 ± 0.14 µM

**Q.** Which Km [3] does the source give for `c1ccc2[nH]ccc2c1` [6a, Indole] here?
**A.** 54 ± 8.16 µM

**Q.** How did the Km [4] turn out when `COc1cccc(OC)c1O` [2,6-Dimethoxyphenol] was run?
**A.** 57.5 ± 5 µM

**Q.** With `O=[N+]([O-])c1ccc2c(c1)OCO2` [5-Nitro-1,3-benzodioxole] as the compound, how does the Km [5] read?
**A.** 18 ± 3.42 µM
